In patent US20100249373A1, “SCREENING METHODS” (priority 2007, published 2010):

How the values were obtained:
NCKX5 = assay: Western blot of NCKX5 protein after siRNA knockdown in human melanocytes; assay type: cell-based; conditions: 5 days after siRNA mediated knockdown; anti C-terminus pAb; FIG. 28
Procedure: FIG. 28—Western blot analysis of NCK5 after knockdown. Using Western blotting we have investigated NCKX5 protein expression 5 days after siRNA mediated knockdown (all 5 siRNA duplexes and controls were tested). Western blot was also used to evaluate the expression and processing (maturation) of tyrosinase (tyr) in the same samples. SDS-PAGE (10% PA for NCKX5, 4-12% for tyr, 5 μg protein/lane). A) Western blot for NCKX5: Detection via rabbit anti-NCKX5 pAb (anti C-terminus peptide). B) Western blot for tyr, via goat pAb (Santa Cruz). 1=No treatment, 2=scrambled siRNA control, 3-7=siRNA's 185, 260, 301, 492, 1110. […] These bands are absent in the samples where SLC24A5-specific duplexes were used (lanes 3-7). It is possible that the doublet represents the presence of alternate SLC24A5 splice variants.
Cultured Cells (trypsinised off of 6-well culture plates) were lysed on ice for 20 minutes in 1.5 ml eppendorfs using 100 μl per sample of 1% triton X-100 in dPBS containing protease inhibitor cocktail (Sigma-Aldrich, Poole, UK). Cell extracts were centrifuged (10 minutes at 13000 g) to separate melanin and cell debris from the solubilised protein. The protein concentration of each supernatant fraction was determined by BCA assay as described in A).
20 μg protein (as determined by BCA assay) was reconstituted into 20 μl of 1×LDS loading buffer (Invitrogen Ltd, Paisley, UK) containing 1× reducing agent (Invitrogen Ltd, Paisley, UK), heated to 40° C. for 30 minutes and loaded onto 10% Novex bis-tris acrylamide gels with 1×MOPS running buffer (Invitrogen Ltd, Paisley, UK). Kaleidoscope molecular weight markers (Bio-Rad Laboratories Ltd, Hemel Hempstead, UK) were run alongside samples for size determinations. Protein was transferred onto PVDF membrane by electrophoresis transfer, using a Bio-Rad mini-cell II trans-blotter and 1×Tris-Glycine transfer buffer (Invitrogen Ltd, Paisley, UK)+15% v/v methanol (100V for 1 hour).
Membranes containing transferred protein were “blocked” using 2% w/v skimmed milk protein (SMP) in PBS+0.05% tween20 (PBST) for 1 hour with gentle agitation. Peptide affinity purified rabbit polyclonal antibody (raised using a peptide equivalent to the C-terminus of NCKX5—GNNKIRGCGG) was diluted to 0.5 μg/ml using 2% SMP in PBST. The diluted antibody was incubated with the membrane for 2 hours at room temperature. The membrane was then rinsed with PBST (4×5 minutes washes). Peroxidase conjugated anti-rabbit IgG (Jackson ImmunoResearch Laboratories Inc. PA, USA) was diluted 1/4000 using 2% SMP in PBST and was incubated with the membranes for 1 hour. Finally, membranes were washed using 6×5 minute rinses with PBST. […]

[1] = tested on: lightly pigmented human melanocytes; assay: Quantitative assessment of melanogenesis (melanin content) after siRNA knockdown; assay type: cell-based; conditions: replicated x3, FIG. 27
Procedure: FIG. 27—Quantitative assessment of melanogenesis. A decrease in post-treatment melanin content is noted for duplex (492) in lightly pigmented human melanocytes (replicated ×3).
To each pellet of melanin+cell debris obtained in section 2), 0.5 ml of diethyl ether:ethanol (1:1 ratio) was added. Eppendorfs were vortexed vigorously for 30 seconds and centrifuged at 13000 g for 5 minutes. The ether layer was carefully removed to waste and a further 0.5 ml was added. The tubes were agitated and centrifuged as before. The liquid phase was again removed and the melanin pellets were allowed to air dry at room temperature for 10 minutes. Melanin pellets were solubilised by the addition of 200 μl of 1M NaOH+10% DMSO and incubation (with occasional agitation) at 50° C. for 1 hour. 80 μl aliquots of each sample were transferred to a 96-well microtitre plate in duplicate. OD^450 of each sample was determined and the melanin content of each fraction was calculated from a synthetic melanin standard curve, prepared as described above. In treatment comparisons, results were expressed as μg melanin per μg protein.
Primary human melanocytes isolated from lightly pigmented or darkly pigmented neonatal foreskin were obtained from Cascade Biologics. Melanocyte Growth Medium (MGM) refers to Medium 254 (Cascade Biologics) supplemented with HMGS (Cascade Biologics). […]

Substance: 185 (sense AGGGCCACAGGAAATAGCACCCAAT; antisense TCCCGGTGTCCTTTATCGTGGGTTA; chemistry not given here; one strand is listed 3' to 5') [compound 185]
- NCKX5 Western blot bands of approx. 42 and 44 kDa (NCKX5): absent

Substance: 260 (sense GAGCGCAGAGATGGAGGCATCATAA; antisense CTCGCGTCTCTACCTCCGTAGTATT; chemistry not given here; one strand is listed 3' to 5') [compound 260]
- NCKX5 Western blot bands of approx. 42 and 44 kDa (NCKX5): absent

Substance: 301 (sense CGTTTACATGTTCATGGCCATATCT; antisense GCAAATGTACAAGTACCGGTATAGA; chemistry not given here; one strand is listed 3' to 5') [compound 301]
- NCKX5 Western blot bands of approx. 42 and 44 kDa (NCKX5): absent

Substance: 492 (sense GCACCATCCTTGGATCTGCAATTTA; antisense CGTGGTAGGAACCTAGACGTTAAAT; chemistry not given here; one strand is listed 3' to 5') [compound 492]
- post-treatment melanin content [1]: decrease
- NCKX5 Western blot bands of approx. 42 and 44 kDa (NCKX5): absent
